Each structure is given as a SMILES string. Where two headings read alike, the source gives them in different places.

A short description of data set [1]: Oral bioavailability in male Sprague-Dawley rats, compound alone or with excipient in water pH 8 by oral gavage; plasma by LC-MS/MS. Type of data set: in vivo. To be noted: for Bioavailability (% F): oral gavage. Here is the method: The influence of different excipients on the bioavailability of Compound 2 was investigated in Sprague Dawley rats. The excipients tested were Solutol HS 15, soy L-α-phosphatidylcholine, trisodium citrate, sodium caprate, disodium EDTA, and sodium phytate. Generally, 10-30 mg of Compound 2 and the indicated quantity (Table 5) of excipient was combined and dissolved in 5 mL water. The pH was adjusted to a pH of 8 using HCl or NaOH as needed.
Male Sprague-Dawley rats, weighing between 0.27 to 0.32 kg, were fasted overnight prior to dose administration through approximately 4 hours post-dose. Compound 2 was administered orally by orogastric gavage at 5 mL/kg. Blood samples were collected via femoral vein at designated time points, and centrifuged to obtain plasma.
(§1) Plasma samples obtained at each time point from the subjects were prepared by protein precipitation. An aliquot of 50 μL sample was added with 150 μL acetonitrile containing an internal standard ([(2R,3S,4R,5R)-5-[2-chloro-6-(cyclopentylmethylamino)purin-9-yl]-3,4-dihydroxyoxolan-2-yl]methoxymethylphosphonic acid, 200 ng/mL in Acetonitrile). The mixture was vortexed for 15 min and then centrifuged at 4500 rpm for 15 min at 4° C. (Sorvall Legend XTR centrifuge, Thermo Scientific, Langenselbold, Germany). 80 μL of the resulting supernatant was transferred into a new plate and mixed with 160 μL water followed by LC-MS/MS analysis.
• API 4000 mass spectrometer (Applied Biosystems, Foster City, Calif.) • Shimadzu Nexera X^2 UHPLC System (Shimadzu Scientific Instruments, Canby, Oreg.) Column: SHISEIDO CAPCELL PAK INERT ADME S3 (2.00 mm×50 mm, Part No. 79001) Mobile Phase A: 8.6 mM Triethylamine, 100 mM HFIP (1,1 1,3,3,3-Hexafluoro-2-propanol) in Water Mobile Phase B: 8.6 mM Triethylamine, and 100 mM HFIP in [Acetonitrile:water (95:5, v/v) Needle wash (weak & strong): Acetone: MeCN: Water (80:20:20, v/v/v) Flow Rate: 0.50 mL/min
• Ionization Mode: Electrospray (ESI) • Detection Mode: Negative MRM (Q1/Q3 transitions: m/z 562.2/157.0 for Compound 2; m/z 584.0/157.0 for Internal Standard)

A short description of data set [2]: Oral exposure in cynomolgus monkeys, compound alone or with excipient in capsules; plasma by LC-MS/MS. Type of data set: in vivo. To be noted: for AUC(0-inf) / Cmax: male, cynomolgus monkey, plasma, po, 50 mg, enteric capsules; for Cmax: read-out: Cmax.
Excerpt: The influence of different excipients on the bioavailability of Compound (Ia), Compound 2 and Compound 3 in cynomolgus monkeys was investigated. The excipients tested were sodium phytate, sodium citrate, sodium EDTA, cyclodextrin, sodium taurocholate, sodium polystyrene sulfate, sodium caprate, sodium phosphate, carbomer 971P and palmitoyl carnitine chloride. Generally, an appropriate quantity (as indicated in Table 1) of Compound (Ia), Compound 2 or Compound 3 and an excipient were mixed to homogeneity and transferred to capsules for dosing. In one example, Compound (Ia) (500 mg assay, 1.063 correction factor applied for to account for purity) and 2.75 g of sodium phytate (Sigma) were combined in a mortar and pestle. The mixture was ground to homogeneity then 530 mg of the white powder was transferred to enteric capsules (Size 0) prior to dosing.
[…] Compound (Ia), Compound 2 or Compound 3, either alone, or with excipient, in an enteric capsule was administered via an oral pet piller. Blood samples were collected from a peripheral vessel at designated time points, and centrifuged to obtain plasma.
as §1, with “([[[(2R,3S,4R,5R)-5-[6-chloro-4-[[(1S)-2,2,2-trideuterio-1-(2-fluorophenyl)ethyl]amino]pyrazolo[3,4-b]pyridin-1-yl]-3,4-dihydroxyoxolan-2-yl]-dideuteriomethoxy]-hydroxyphosphoryl]methylphosphonic” for “([(2R,3S,4R,5R)-5-[2-chloro-6-(cyclopentylmethylamino)purin-9-yl]-3,4-dihydroxyoxolan-2-yl]methoxymethylphosphonic”
• API 4000 mass spectrometer (Applied Biosystems, Foster City, Calif.) • Shimadzu Nexera X^2 UHPLC System (Shimadzu Scientific Instruments, Canby, Oreg.) Column: SHISEIDO CAPCELL PAK INERT ADME S3 (2.00 mm×50 mm, Part No. 79001) Mobile Phase A: 8.6 mM Triethylamine, 100 mM HFIP (1,1,1,3,3,3-Hexafluoro-2-propanol) in Water Mobile Phase B: 8.6 mM Triethylamine, and 100 mM HFIP in [Acetonitrile:water (95:5, v/v) Needle wash (weak & strong): Acetone:MeCN:Water (80:20:20, v/v/v) Flow Rate: 0.50 mL/min HPLC Gradient:
• Ionization Mode: Electrospray (ESI) • Detection Mode: Negative MRM (Q1/Q3 transitions: m/z 579.0/157.0 for Compound (Ia) or Compound 3; m/z 584.0/157.0 for Internal Standard); (Q1/Q3 transitions m/z 562.2/157.0 for Compound 2; m/z 584.0/157.0 for Internal Standard)

Setting [3] is: Table 3: dose 50 mg, dosed with 195 mg trisodium citrate and 3 mg SDS.
Setting [4] is: Table 4: dose 50 mg, dosed with 275 mg sodium phytate.

As a reminder, the AUC(0-inf) is total exposure, with the tail of the curve extrapolated. Read a high AUC(0-inf) as high exposure. In general, Cmax refers to the peak of the concentration-time curve. Turning to `C[C@H](Nc1nc(Cl)nc2c1cnn2[C@@H]1O[C@H](COP(=O)(O)CP(=O)(O)O)[C@@H](O)[C@H]1O)c1ccccc1` [Compound 2], the “Oral bioavailability using calcium chelating excipients” value in data set [1] (SD rats, 10-30 mg/kg + excipient in water at pH 8 via oral gavage, 5 mL/kg) is listed as “Improved”; in data set [2] (cynomolgus monkeys, capsules, versus compound alone) it was “Improved”. In addition, the “Bioavailability (% F)” value in data set [1] (10 mg/kg, excipient: Sodium phytate (Sigma) 165 mg/SDS 2 mg) came to 2.0 % F; in data set [1] (10 mg/kg, excipient: Sodium phytate (Sigma, ≥5 mol sodium/mol) 165 mg), 2.3 % F; in data set [1] (10 mg/kg, excipient: Trisodium citrate 64.5 mg/sodium caprate 49 mg) it was 0.23 % F; in data set [1] (30 mg/kg, excipient (mg/kg): Solutol HS 15, 1,500), 0.015 % F; in data set [1] (30 mg/kg, excipient: Disodium EDTA 5 mg) it was 0.60 % F; in data set [1] (30 mg/kg, excipient: Disodium EDTA 20 mg), 2.8 % F. Moreover, the “Bioavailability (% F)” value in data set [1] (30 mg/kg, excipient: None) was determined as 0.03 % F; in data set [1] (30 mg/kg, excipient: Soy L-α-phosphatidylcholine 150 mg) it was 0.07 % F; in data set [1] (30 mg/kg, excipient: Trisodium citrate 20 mg), 0.10 % F; in data set [1] (30 mg/kg, excipient: Trisodium citrate 64.5 mg), 0.60 % F. The total exposure AUC(0-inf) stood at 67100 ng·h/mL in data set [2] (setting [3]) and 105000 ng·h/mL in data set [2] (setting [4]). Besides, the highest concentration (Cmax) was determined as 2530 ng/mL in data set [2] (setting [3]) and 2320 ng/mL in data set [2] (setting [4]).

Source of the values: patent publication US11633416B1, “Oral formulations of CD73 compounds” (ARCUS BIOSCIENCES, INC., priority 2020, dated 2023).
